Data taken from PubChem BioAssay (NCI).
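These data come from cells grown in 96-well plates and exposed to compound for 48 hours at five concentrations. TGI is the concentration that stops growth completely.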

Columns and labels:
Experiment in all cases: NCI tumour cell line growth inhibition, 48 h
SR leukemia = system: SR leukemia
UACC-257 melanoma = system: UACC-257 melanoma
MOLT-4 leukemia = system: MOLT-4 leukemia
HCC-2998 colon = system: HCC-2998 colon
HS 578T breast = system: HS 578T breast
U251 CNS = system: U251 CNS
786-0 renal = system: 786-0 renal
SF-268 CNS = system: SF-268 CNS
HOP-92 NSCLC = system: HOP-92 NSCLC
SF-539 CNS = system: SF-539 CNS

For NC(=O)CSc1nc2ccccc2c(=O)n1N, the TGI (SR leukemia) was > 100 µM, the TGI (UACC-257 melanoma) was > 100 µM and the TGI (MOLT-4 leukemia) was > 100 µM. For the same compound, the TGI (HCC-2998 colon) was > 100 µM, the TGI (HS 578T breast) was > 100 µM and the TGI (U251 CNS) was > 100 µM. The TGI (786-0 renal) was > 100 µM, the TGI (SF-268 CNS) was > 100 µM and the TGI (HOP-92 NSCLC) was > 100 µM. For the same compound, the TGI (SF-539 CNS) was > 100 µM.
CC(C)OC(=O)C(NC(=O)C(CC(=O)OCc1ccccc1)NC(=O)OCc1ccccc1)NC(=O)C1C(C)(C)CCC1(C)C (stereo not given) was tested, and the TGI (SR leukemia) was 7.5 µM, the TGI (UACC-257 melanoma) was > 60.8 µM and the TGI (MOLT-4 leukemia) was > 51 µM. The TGI (HCC-2998 colon) was > 56.5 µM, the TGI (HS 578T breast) was 23.5 µM and the TGI (U251 CNS) was 4.68 µM. The TGI (786-0 renal) was 5.3 µM, the TGI (SF-268 CNS) was 45.9 µM and the TGI (HOP-92 NSCLC) was 24.1 µM. The TGI (SF-539 CNS) was 13.1 µM.
COC(=O)[C@H](C)NC(=O)[C@H](NS(=O)(=O)c1nc2ccccc2s1)c1ccccc1 was tested, and the TGI (SR leukemia) was > 100 µM, the TGI (UACC-257 melanoma) was 26.3 µM and the TGI (MOLT-4 leukemia) was > 100 µM. It also gave a TGI (HCC-2998 colon) of 44.5 µM, a TGI (HS 578T breast) of 36.5 µM and a TGI (U251 CNS) of 41 µM. The TGI (786-0 renal) was 80.4 µM, the TGI (SF-268 CNS) was 33.5 µM and the TGI (HOP-92 NSCLC) was 27.4 µM. For the same compound, the TGI (SF-539 CNS) was 30.4 µM.
Cc1n[nH]c(=O)n1-n1cccc1 was tested, and the TGI (SR leukemia) was > 100 µM, the TGI (UACC-257 melanoma) was > 100 µM and the TGI (MOLT-4 leukemia) was > 100 µM. The TGI (HCC-2998 colon) was > 100 µM, the TGI (HS 578T breast) was > 100 µM and the TGI (U251 CNS) was > 100 µM. For the same compound, the TGI (786-0 renal) was > 100 µM, the TGI (SF-268 CNS) was > 100 µM and the TGI (HOP-92 NSCLC) was > 100 µM. For the same compound, the TGI (SF-539 CNS) was > 100 µM.
In the case of Cc1cc(NC(=O)NC(=O)c2ccccc2NC(=O)CN(C)C)ccc1Oc1ncc(Br)cn1, the TGI (SR leukemia) was > 79.5 µM, the TGI (UACC-257 melanoma) was > 100 µM and the TGI (MOLT-4 leukemia) was 59.8 µM. For the same compound, the TGI (HCC-2998 colon) was 6.05 µM, the TGI (HS 578T breast) was > 23.9 µM and the TGI (U251 CNS) was > 86.6 µM. The TGI (786-0 renal) was > 89.3 µM, the TGI (SF-268 CNS) was > 100 µM and the TGI (HOP-92 NSCLC) was > 100 µM. The TGI (SF-539 CNS) was 10.6 µM.
For COCc1cc2c(s1)C(=O)C1=C(C2=O)C2(C=C(Br)C(=O)C(Br)=C2)CCN1, the TGI (SR leukemia) was 8.35 µM, the TGI (UACC-257 melanoma) was 3.32 µM and the TGI (MOLT-4 leukemia) was 8.29 µM. For the same compound, the TGI (HCC-2998 colon) was 24.8 µM, the TGI (HS 578T breast) was 30.6 µM and the TGI (U251 CNS) was 23.7 µM. For the same compound, the TGI (786-0 renal) was 16.3 µM, the TGI (SF-268 CNS) was 17.8 µM and the TGI (HOP-92 NSCLC) was 15.1 µM. It also gave a TGI (SF-539 CNS) of 15.5 µM.
With CC[C@]1(c2ccc3c(c2)OCO3)C=[N+]([O-])O[C@H](OC2CCCC2(c2ccccc2)c2ccccc2)[C@@H]1OC(C)=O (stereo not given in full) the TGI (SR leukemia) was > 21.7 µM, the TGI (UACC-257 melanoma) was 7.62 µM and the TGI (MOLT-4 leukemia) was > 19.8 µM. The TGI (HCC-2998 colon) was 4.05 µM, the TGI (HS 578T breast) was > 100 µM and the TGI (U251 CNS) was > 62.6 µM. It also gave a TGI (786-0 renal) of 3.77 µM, a TGI (SF-268 CNS) of 6.64 µM and a TGI (HOP-92 NSCLC) of 76.1 µM. The TGI (SF-539 CNS) was > 100 µM.
With BrC1(c2ccccc2)C[n+]2c(-c3ccccc3)cc(-c3ccccc3)cc2-c2ccccc21 (stereo not given) the TGI (SR leukemia) was > 42.5 µM, the TGI (UACC-257 melanoma) was 2.55 µM and the TGI (MOLT-4 leukemia) was 6.38 µM. It also gave a TGI (HCC-2998 colon) of 0.742 µM, a TGI (HS 578T breast) of 0.872 µM and a TGI (U251 CNS) of 1.2 µM. For the same compound, the TGI (786-0 renal) was 13.4 µM, the TGI (SF-268 CNS) was 2.96 µM and the TGI (HOP-92 NSCLC) was 3.7 µM. The TGI (SF-539 CNS) was 11.4 µM.
In the case of C/C(=N\NC(=S)NC(C)(C)C)c1nc2ncccc2[nH]1, the TGI (SR leukemia) was > 72.2 µM, the TGI (UACC-257 melanoma) was > 100 µM and the TGI (MOLT-4 leukemia) was 23.7 µM. For the same compound, the TGI (HCC-2998 colon) was > 68.6 µM, the TGI (HS 578T breast) was > 30.2 µM and the TGI (U251 CNS) was > 100 µM. The TGI (786-0 renal) was > 100 µM, the TGI (SF-268 CNS) was > 31.6 µM and the TGI (HOP-92 NSCLC) was 42.9 µM. For the same compound, the TGI (SF-539 CNS) was 13.6 µM.
With CC(=O)Oc1cc2c(cc1OCC(F)(F)F)[C@H]1CC[C@]3(C)[C@@H](OC(C)=O)CC[C@H]3[C@@H]1CC2=O the TGI (SR leukemia) was > 77.9 µM, the TGI (UACC-257 melanoma) was 72.8 µM and the TGI (MOLT-4 leukemia) was 38.8 µM. For the same compound, the TGI (HCC-2998 colon) was 67.3 µM, the TGI (HS 578T breast) was 50.4 µM and the TGI (U251 CNS) was > 74.1 µM. The TGI (786-0 renal) was > 100 µM, the TGI (SF-268 CNS) was > 77.4 µM and the TGI (HOP-92 NSCLC) was 40.2 µM. The TGI (SF-539 CNS) was 46.1 µM.
In the case of O=C(O)[C@H]1NC[C@H]2C(Br)=NO[C@@H]12, the TGI (SR leukemia) was > 100 µM, the TGI (UACC-257 melanoma) was > 100 µM and the TGI (MOLT-4 leukemia) was > 100 µM. The TGI (HCC-2998 colon) was > 100 µM, the TGI (HS 578T breast) was > 100 µM and the TGI (U251 CNS) was > 100 µM. For the same compound, the TGI (786-0 renal) was > 100 µM, the TGI (SF-268 CNS) was > 100 µM and the TGI (HOP-92 NSCLC) was > 100 µM. For the same compound, the TGI (SF-539 CNS) was > 100 µM.
With O=c1[nH]c2c(Nc3c4ccccc4nc4ccccc34)c([N+](=O)[O-])c(Nc3c4ccccc4nc4ccccc34)c([N+](=O)[O-])c2[nH]1 the TGI (SR leukemia) was 4.07 µM, the TGI (UACC-257 melanoma) was 10.4 µM and the TGI (MOLT-4 leukemia) was 2.39 µM. The TGI (HCC-2998 colon) was 3.5 µM, the TGI (HS 578T breast) was 7.12 µM and the TGI (U251 CNS) was 8.35 µM. The TGI (786-0 renal) was > 28.4 µM, the TGI (SF-268 CNS) was 6.74 µM and the TGI (HOP-92 NSCLC) was 4.74 µM. For the same compound, the TGI (SF-539 CNS) was 18.6 µM.
With C[C@H]1CCC/C=C/[C@@H]2C[C@H](OC3OC(CO)C(O)C(O)C3O)C[C@H]2[C@H](O)/C=C/C(=O)O1 (stereo not given in full) the TGI (SR leukemia) was > 100 µM, the TGI (UACC-257 melanoma) was 78.9 µM and the TGI (MOLT-4 leukemia) was > 100 µM. For the same compound, the TGI (HCC-2998 colon) was > 100 µM, the TGI (HS 578T breast) was > 100 µM and the TGI (U251 CNS) was > 100 µM. For the same compound, the TGI (786-0 renal) was > 100 µM, the TGI (SF-268 CNS) was > 100 µM and the TGI (HOP-92 NSCLC) was > 100 µM. The TGI (SF-539 CNS) was > 100 µM.
Cc1nnc(SCc2nc(C#N)c(C#N)nc2CSc2nnc(C)s2)s1 showed a TGI (SR leukemia) of 51.4 µM, a TGI (UACC-257 melanoma) of 28.3 µM and a TGI (MOLT-4 leukemia) of 12.9 µM. The TGI (HCC-2998 colon) was 30.4 µM, the TGI (HS 578T breast) was > 59.4 µM and the TGI (U251 CNS) was 37.5 µM. The TGI (786-0 renal) was 28.8 µM, the TGI (SF-268 CNS) was 35.4 µM and the TGI (HOP-92 NSCLC) was 26.8 µM. It also gave a TGI (SF-539 CNS) of 40.9 µM.
With CC1(C)CCC[C@@]2(C)C1CC[C@@]1(CO)O[C@H](C3=CC(=O)OC3O)C[C@H]12 (stereo not given in full) the TGI (SR leukemia) was 7.58 µM, the TGI (UACC-257 melanoma) was 35 µM and the TGI (MOLT-4 leukemia) was 11.5 µM. For the same compound, the TGI (HCC-2998 colon) was 31.3 µM, the TGI (HS 578T breast) was 38.4 µM and the TGI (U251 CNS) was 28.5 µM. For the same compound, the TGI (786-0 renal) was 38.6 µM, the TGI (SF-268 CNS) was > 55.6 µM and the TGI (HOP-92 NSCLC) was 38.2 µM. For the same compound, the TGI (SF-539 CNS) was > 59.8 µM.
COc1ccc2oc(=O)c(-c3cc4c(c(C)n3)c(=O)oc3ccc(OC)cc34)cc2c1 was tested, and the TGI (SR leukemia) was > 100 µM, the TGI (UACC-257 melanoma) was > 100 µM and the TGI (MOLT-4 leukemia) was > 100 µM. The TGI (HCC-2998 colon) was > 100 µM, the TGI (HS 578T breast) was 83.5 µM and the TGI (U251 CNS) was > 100 µM. The TGI (786-0 renal) was 4.34 µM, the TGI (SF-268 CNS) was > 100 µM and the TGI (HOP-92 NSCLC) was > 100 µM. For the same compound, the TGI (SF-539 CNS) was > 100 µM.
